What was measured:
[1] = tested on: Corn Earworm (CEW) (Helicoverpa zea); test: Bioassay on corn earworm (CEW), 128-well diet tray assay; assay type: in vivo; conditions: Helicoverpa zea; Corn earworm, 50 μg/cm^2; read-out: % Mortality CEW 50 μg/cm^2
Procedure, shortened: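 Second-instar Helicoverpa zea larvae (one to five per well) placed on artificial diet treated with 50 μg/cm^2 compound in 90:10 acetone-water, dried, eight wells per compound. Held at 25 °C, 14:10 light-dark, five to seven days; percent mortality averaged over wells.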

[2] = tested on: Beet Armyworm (BAW) (Spodoptera exigua); test: Bioassay on beet armyworm (BAW), 128-well diet tray assay; assay type: in vivo; conditions: Spodoptera exigua; Beet armyworm, 50 μg/cm^2; read-out: % Mortality BAW 50 μg/cm^2
Procedure, shortened: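 Second-instar Spodoptera exigua larvae, one to five per well, on artificial diet treated with 50 μg/cm^2 compound in 90:10 acetone-water and dried, eight wells per compound. Held at 25 °C, 14:10 light-dark for five to seven days; percent mortality averaged over wells.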

| SMILES | pest or weed control at 50 µg/cm2, 50 µg/cm2 [1] [%] | pest or weed control at 50 µg/cm2, 50 µg/cm2 [2] [%] |
| --- | --- | --- |
| CC(C)c1ccccc1N1CS/C1=N\N=C\c1ccc(-c2ncn(-c3ccc4c(c3)OC(F)(F)O4)n2)cc1 [Compound 249C] | 50 to 100 | 50 to 100 |
| CCc1cccc(C)c1N1CS/C1=N\N=C\c1ccc(-c2ncn(-c3ccc(OC(F)(F)F)cc3)n2)cc1 [Compound 243C] | 50 to 100 | 50 to 100 |
| CC1CS/C(=N\N=C\c2ccc(-c3ncn(-c4ccc(OC(F)(F)F)cc4)n3)cc2)N1c1ccccc1OC(F)(F)F (stereo not shown) [Compound 168C] | 50 to 100 | 50 to 100 |
| COCOCC(C)C(=O)OCS/C(=N\c1c(C)cc(OC)cc1C)N/N=C/c1ccc(-c2ncn(-c3ccc(OC(F)(F)F)cc3)n2)cc1 (stereo not shown) [Compound 42C] | 50 to 100 | 50 to 100 |
| Cc1cs/c(=N\N=C\c2ccc(-c3ncn(-c4ccc(OC(F)(F)F)cc4)n3)cc2)n1-c1ccccc1C(C)C [Compound 176C] | 50 to 100 | 50 to 100 |
| CC(C)c1cc(F)ccc1N1CS/C1=N\N=C\c1ccc(-c2ncn(-c3ccc(OC(F)(F)F)cc3)n2)cc1 [Compound 252C] | 50 to 100 | 50 to 100 |
| CC(C)c1cccc(F)c1N1CS/C1=N\N=C\c1ccc(-c2ncn(-c3ccc(OC(F)(F)F)cc3)n2)cc1 [Compound 250C] | 50 to 100 | 50 to 100 |
| Cc1cc(C)c(N2CCCS/C2=N\N=C\c2ccc(-c3ncn(-c4ccc(OC(F)(F)F)cc4)n3)cc2)c(C)c1 [Compound 184C] | 50 to 100 | 50 to 100 |
| Cc1cccc(C)c1N1C(=O)CCS/C1=N\N=C\c1ccc(-c2ncn(-c3ccc(OC(F)(F)F)cc3)n2)cc1 [Compound 223C] | 50 to 100 | 50 to 100 |
| CCc1ccccc1N1C(=O)CS/C1=N\N=C\c1ccc(-c2ncn(-c3ccc(OC(F)(F)F)cc3)n2)cc1 [Compound 94C] | 50 to 100 | 50 to 100 |
| CCCc1ccccc1N1C(=O)C(C)S/C1=N\N=C\c1ccc(-c2ncn(-c3ccc(OC(F)(F)F)cc3)n2)cc1 (stereo not shown) [Compound 128C] | 50 to 100 | 50 to 100 |
| Fc1cccc(Cl)c1N1CCS/C1=N\N=C\c1ccc(-c2ncn(-c3ccc(OC(F)(F)F)cc3)n2)cc1 [Compound 143C] | 50 to 100 | 50 to 100 |
| CC(C)c1ccc(F)cc1N1CS/C1=N\N=C\c1ccc(-c2ncn(-c3ccc(OC(F)(F)F)cc3)n2)cc1 [Compound 251C] | 50 to 100 | 50 to 100 |
| O=C1CS/C(=N\N=C\c2ccc(-c3ncn(-c4ccc(OC(F)(F)F)cc4)n3)cc2)N1c1c(F)cccc1F [Compound 89C] | 50 to 100 | 50 to 100 |
| CC(C)c1cc(F)ccc1N1CS/C1=N\N=C\c1ccc(-c2ncn(-c3ccc(C(F)(F)F)cc3)n2)cc1 [Compound 261C] | 50 to 100 | 50 to 100 |
| FC(F)(F)Oc1ccc(-n2cnc(-c3ccc(/C=N/N=C4\SCCCN4c4ccccc4OC(F)(F)F)cc3)n2)cc1 [Compound 199C] | 50 to 100 | 50 to 100 |
| CC1S/C(=N\N=C\c2ccc(-c3ncn(-c4ccc(OC(F)(F)F)cc4)n3)cc2)N(c2c(F)cccc2F)C1=O (stereo not shown) [Compound 131C] | 50 to 100 | 50 to 100 |
| O=C1CCS/C(=N\N=C\c2ccc(-c3ncn(-c4ccc(OC(F)(F)F)cc4)n3)cc2)N1c1c(Cl)cccc1C(F)(F)F [Compound 228C] | 50 to 100 | 50 to 100 |
| CN(C)c1cccc(N2C(=O)CS/C2=N\N=C\c2ccc(-c3ncn(-c4ccc(OC(F)(F)F)cc4)n3)cc2)c1 [Compound 97C] | 50 to 100 | 50 to 100 |
| Cc1cccc(Cl)c1N1CCCS/C1=N\N=C\c1ccc(-c2ncn(-c3ccc(OC(F)(F)F)cc3)n2)cc1 [Compound 196C] | 50 to 100 | 50 to 100 |
| Cc1cccc(C)c1/N=C(/N/N=C/c1ccc(-c2ncn(-c3ccc(OC(F)(F)F)cc3)n2)cc1)SCOC(=O)C(C)C [Compound 25C] | 50 to 100 | 50 to 100 |
| CC(C)c1ccc(F)cc1N1CS/C1=N\N=C\c1ccc(-c2ncn(-c3ccc(C(C)(F)F)cc3)n2)cc1 [Compound 259C] | 50 to 100 | 50 to 100 |

| SMILES | pest or weed control at 50 µg/cm2, 50 µg/cm2 [1] [%] | pest or weed control at 50 µg/cm2, 50 µg/cm2 [2] [%] |
| --- | --- | --- |
| O=C1CS/C(=N\N=C\c2ccc(-c3ncn(-c4ccc(OC(F)(F)F)cc4)n3)cc2)N1c1c(Br)cccc1Br [Compound 99C] | 50 to 100 | 50 to 100 |
| CCN(CC)c1ccc(-c2cs/c(=N\N=C\c3ccc(-c4ncn(-c5ccc(OC(F)(F)F)cc5)n4)cc3)n2-c2c(C)cccc2C)cc1 [Compound 74C] | 50 to 100 | 50 to 100 |
| Cc1cccc(Cl)c1N1C(=O)CCS/C1=N\N=C\c1ccc(-c2ncn(-c3ccc(OC(F)(F)F)cc3)n2)cc1 [Compound 227C] | 50 to 100 | 50 to 100 |
| CC(C)c1ccc(F)cc1N1CS/C1=N\N=C\c1ccc(-c2ncn(-c3ccc(C(F)(F)C(F)(F)F)cc3)n2)cc1 [Compound 260C] | 50 to 100 | 50 to 100 |
| CC(C)c1ccc(F)cc1N1CS/C1=N\N=C\c1ccc(-c2ncn(-c3ccc(OC(F)(F)C(F)(F)F)cc3)n2)cc1 [Compound 256C] | 50 to 100 | 50 to 100 |
| O=C1CS/C(=N\N=C\c2ccc(-c3ncn(-c4ccc(OC(F)(F)F)cc4)n3)cc2)N1c1c(Cl)cccc1Cl [Compound 70C] | 50 to 100 | 50 to 100 |
| CC1CCS/C(=N\N=C\c2ccc(-c3ncn(-c4ccc(OC(F)(F)F)cc4)n3)cc2)N1c1c(Cl)cccc1C(F)(F)F (stereo not shown) [Compound 217C] | 50 to 100 | 50 to 100 |
| C/C(=N\N=C1/SCC(=O)N1c1ccccc1C(C)C)c1ccc(-c2ncn(-c3ccc(OC(F)(F)F)cc3)n2)cc1 [Compound 122C] | 50 to 100 | 50 to 100 |
| Cc1cccc(C)c1/N=C(/N/N=C/c1ccc(-c2ncn(-c3ccc(OC(F)(F)F)cc3)n2)cc1)SCc1c(-c2ccccc2)noc1C [Compound 20C] | 50 to 100 | 50 to 100 |
| Cc1cc(Cl)cc(C)c1N1C(=O)CS/C1=N\N=C\c1ccc(-c2ncn(-c3ccc(OC(F)(F)F)cc3)n2)cc1 [Compound 105C] | 50 to 100 | 50 to 100 |
| Cc1cccc(Cl)c1N1CS/C1=N\N=C\c1ccc(-c2ncn(-c3ccc(OC(F)(F)F)cc3)n2)cc1 [Compound 246C] | 50 to 100 | 50 to 100 |
| Cc1cccc(C(C)C)c1N1C(=O)CS/C1=N\N=C\c1ccc(-c2ncn(-c3ccc(OC(F)(F)F)cc3)n2)cc1 [Compound 238C] | 50 to 100 | 50 to 100 |
| CCC(C)c1ccccc1N1C(=O)CCS/C1=N\N=C\c1ccc(-c2ncn(-c3ccc(OC(F)(F)F)cc3)n2)cc1 (stereo not shown) [Compound 230C] | 50 to 100 | 50 to 100 |
| CCc1ccccc1N1CS/C1=N\N=C\c1ccc(-c2ncn(-c3ccc(OC(F)(F)F)cc3)n2)cc1 [Compound 254C] | 50 to 100 | 50 to 100 |
| CC(C)c1c(F)cccc1N1CS/C1=N\N=C\c1ccc(-c2ncn(-c3ccc(OC(F)(F)F)cc3)n2)cc1 [Compound 253C] | 50 to 100 | 50 to 100 |
| COc1cc(C)c(/N=C(/N/N=C/c2ccc(-c3ncn(-c4ccc(OC(F)(F)F)cc4)n3)cc2)SCC(=O)NCCCN)c(C)c1 [Compound 64C] | 50 to 100 | 50 to 100 |
| CC(C)c1ccccc1N1CS/C1=N\N=C\c1ccc(-c2ncn(-c3ccc(OC(F)(F)F)cc3)n2)cc1 [Compound 240C] | 50 to 100 | 50 to 100 |
| Cc1cccc(C)c1/N=C(/N/N=C/c1ccc(-c2ncn(-c3ccc(OC(F)(F)F)cc3)n2)cc1)SCc1ccc(C(=O)O)cc1 [Compound 6C] | 50 to 100 | 50 to 100 |
| CC(C)Cc1ccccc1N1CCS/C1=N\N=C\c1ccc(-c2ncn(-c3ccc(OC(F)(F)F)cc3)n2)cc1 [Compound 150C] | 50 to 100 | 50 to 100 |
| Cc1cccc(C)c1N1C(=O)CS/C1=N\N=C\c1ccc(-c2ccn(-c3ccc(OC(F)(F)F)cc3)n2)cc1 [Compound 103C] | 50 to 100 | 50 to 100 |
| COc1cc(C)c(/N=C(/N/N=C/c2ccc(-c3ncn(-c4ccc(OC(F)(F)F)cc4)n3)cc2)SCC(=O)NCCCNC(=O)OC(C)(C)C)c(C)c1 [Compound 60C] | 50 to 100 | 50 to 100 |
| COc1cc(C)c(/N=C(/N/N=C/c2ccc(-c3ncn(-c4ccc(OC(F)(F)C(F)(F)F)cc4)n3)cc2)SCOC(=O)C(C)C)c(C)c1 [Compound 37C] | 50 to 100 | 50 to 100 |

From US9018388B2, “Pesticidal compositions and processes related thereto” (Dow AgroSciences LLC, priority 2012, dated 2015)
